Assay results from US20230381205A1, “COMPOSITIONS AND METHODS FOR TREATING NEURONAL DISORDERS WITH CANNABINOIDS” (INMED PHARMACEUTICALS INC., priority 2020, published 2023).

Assays:
[1] = tested on: differentiated SH-SY5Y cells; experiment: Confocal immunofluorescence of MAP2 and neurite morphology; type: cell-based, human; conditions: FIG. 16
Procedure: SH-SY5Y cells were differentiated with RA (10 μM) for 5 days as indicated.
Accordingly, the effect of CBGA on the expression of MAP-2 was tested.

[2] = tested on: MAP2; experiment: Western blot of MAP2 neuritogenesis marker; type: cell-based, human; conditions: FIG. 15
Procedure: FIG. 15 CBGA upregulates the expression of MAP2 neuritogenesis marker. […] Changes in prominent intracellular marker of neurite growth, microtubule-associated protein 2 (MAP2) was determined using western blot analysis. Histogram showing densitometric analysis of relative expression of MAP2. β-Actin was used as a loading control.
(§1) For Western blot analysis, control and the treated cells were harvested and lysed in cold lysis buffer (150 mM NaCl, 50 mM Tris-HCl, 1% Triton X-100, 0.1% SDS, 0.5% Sodium deoxycholate, and 1% protease-phosphatase inhibitor mixture). The supernatants were collected and protein concentrations were determined using Bio-Rad protein assay (Bio-Rad Laboratories). Whole cell lysates (10 μg) were subjected to 10% SDS-polyacrylamide electrophoresis and transferred to nitrocellulose membrane. The membranes were blocked with 5% skim milk in TBS-T (Tris-buffered saline with 0.05% Tween-20) for 1 h at RT and blotted overnight in the presence of monoclonal anti-mouse MAP2 (1:1000, Sigma, cat. no. M1406), Tau (1:1000, Invitrogen, cat. no. AHB0042), TUJI (1:5000, BioLegend, cat. no. MMS-435P), BAX (1:1000, Cell signaling, cat. no. 2772) and rabbit polyclonal total and phosphorylated BCL (1:1000, Cell signaling, antibodies #2827 and 2870). […]

[3] = tested on: differentiated SH-SY5Y human neuronal cells; experiment: MTT assay: neuroprotection from Staurosporin (STSR) induced cytotoxicity; type: cell-based
Procedure: Cell Culture and Differentiation: The SH-SY5Y human neuronal cell line was derived from neuroblastoma established from a metastatic bone tumor (patient with neuroblastoma). The cells were maintained in DMEM:F12 culture medium supplemented with 10% FBS and 1% Antibiotic-Antimycotic penicillin/streptomycin (growth medium) at 37° C. in a humidified atmosphere of 5% CO2. To induce neuronal differentiation of SH-SY5Y cells, culture media was replaced by a growth medium containing Retinoic Acid (RA) for 4-5 days at 37° C. in a humidified atmosphere of 5% CO2.
Compounds and Dosing Formulations: Selected cannabinoids: CBD, CBDA, CBC, CBG, CBGA, CBN, CBND and Δ^9-THC were procured from Cayman Chemicals and TRC. Ethanol (100%) was used as the solvent to prepare 1 and 10 mM stock solutions. Treatment concentrations for CBGA were prepared at 0.5 μM, 1.5 μM, 5 μM, 10 μM, 15 μM, 20 μM. Treatment concentrations for CBD, CBDA, CBC, CBN, CBND and Δ^9-THC were prepared at 0.5, 1.5, 5 and for CBG at 0.5 μM, 1.5 μM, 5 μM, 10 μM, 15 μM. Treatments were prepared directly in the control medium (DMEM:F12+5% FBS+1% Antibiotic-Antimycotic) by using appropriate stock solutions.
Evaluation of Cytotoxicity and Neuroprotection: Evaluation of cannabinoids neuroprotection and cytotoxicity on differentiated SH-SY5Y human neuronal cells was carried out by MTT (3-(4,5-dimethylthiazol-2-yl)-2,5-diphenyltetrazolium bromide) assay. Initially, cannabinoid cytotoxicity and neuroprotection were evaluated in a primary screen assay without the presence of cytotoxicity inducing insult agents. […] The Retinoic Acid (RA) differentiated SH-SY5Y neuronal cells were seeded onto 96-well plates (10,000 cells/well) in DMEM:F12 complete medium. Cells were differentiated for 4-5 days in the presence of RA.
MTT Assay: For the MTT assay, differentiated SH-SY5Y neuronal cells were treated with cannabinoids at various concentrations for 72 hrs in the presence of STSR at 75 nM, 100 nM, 150 nM and 200 nM or for 24 hrs in the presence of […] at 5 μM, respectively and processed to determine cytotoxicity. Briefly, 5 mg/mL of methylthiazolyldiphenyl-tetrazolium bromide (Sigma-Aldrich) stock solution was prepared in PBS. Following treatment of SH-SY5Y neuronal cells with cannabinoids for 72 hrs, the cells were incubated with 20 μL of MTT stock solution in 200 μL DMEM for 2 hrs at 37° C. Following subsequent washes with PBS, 200 μL of isopropanol was added to each well. The resulting change in color from dissolving formazan salt was immediately quantified using a spectrophotometer (BMG Labtech) at a wavelength of 570 nm. […] The results are illustrated in FIGS. 1-7.

[4] = tested on: CB1R; experiment: Changes in CB1 receptor expression and translocation; type: cell-based; conditions: CBGA 5 μM, 10 μM, dose-dependent; FIG. 11
Description: FIG. 11 Changes in receptor expression.

[5] = tested on: BAX; experiment: Western blot of BAX (pro-apoptotic marker); type: cell-based, human; conditions: CBGA alone or in the presence of Aβ1-42 (5 μM), FIG. 9
Procedure: as §1, with “2870). The membranes were washed and incubated for 1 h in RT with either horseradish peroxidase (HRP)-conjugated goat anti-mouse (1:2000) or goat anti-rabbit antibodies (1:2000) (Jackson Lab). The membranes were washed and developed using chemiluminescence detection kit (Millipore, Billerica, MA, USA) on Alpha Innotech FluorChem 8800. β-Actin or Vinculin was used as a loading control.” for “2870).”

[6] = tested on: BCL2; experiment: Western blot of phosphorylated BCL2 (anti-apoptotic marker); type: cell-based, human; conditions: CBGA 5 μM and 10 μM on Aβ1-42 (5 μM) treated cells, FIG. 10
Procedure: as §1, with “2870). The membranes were washed and incubated for 1 h in RT with either horseradish peroxidase (HRP)-conjugated goat anti-mouse (1:2000) or goat anti-rabbit antibodies (1:2000) (Jackson Lab). The membranes were washed and developed using chemiluminescence detection kit (Millipore, Billerica, MA, USA) on Alpha Innotech FluorChem 8800. β-Actin or Vinculin was used as a loading control.” for “2870).”

[7] = tested on: differentiated SH-SY5Y cells; experiment: Immunocytochemistry of TuJ1 and neuronal morphology; type: cell-based, human; conditions: 5 μM and 10 μM, FIG. 14
Procedure: (§2) FIG. 14 Morphological characterization of CBGA, THC and CBN mediated changes in differentiated SH-SY5Y cells. SH-SY5Y cells were differentiated with RA (10 μM) for 5 days as indicated. (A) Representative confocal photomicrographs showing changes in the cellular distribution of Tuj1 in RA induced differentiated SH-SY5Y cells following treatment with CBGA, THC and CBN. (B) Histogram showing the effect of CBGA, CBN, THC on neurite length.

[8] = tested on: differentiated SH-SY5Y cells; experiment: Neurite length / neuritogenesis in differentiated SH-SY5Y cells; type: cell-based, human
Procedure: FIG. 12 provides representative photomicrographs illustrating CBGA mediated changes in neurite elongation and branching in differentiated SH-SY5Y cells in a dose dependent manner. […] FIG. 12 also provides a histogram showing gradual changes in neurite length following treatment with CBGA.
as §2

CCCCCc1cc(O)c(C/C=C(\C)CCC=C(C)C)c(O)c1C(=O)O [CBGA, 3-[(2E)-3,7-dimethylocta-2,6-dienyl]-2,4-dihydroxy-6-pentylbenzoic acid]
MAP-2 expression, corrected total cell fluorescence ([1]; CBGA 10 μM on otherwise untreated cells): promoted upregulation of MAP-2
neurite morphology ([1]; CBGA alone): elongated neurites and enhanced arborization
MAP2 expression ([1]; CBGA treatment of Aβ1-42 exposed cells): restores MAP2 expression
MAP2 expression, western blot ([2]; CBGA 10 μM alone): increased the expression of MAP2
MAP2 expression, western blot ([2]; CBGA 10 μM with Aβ): abrogates Aβ mediated downregulation of MAP2 expression
neuroprotection against STSR insult-induced cytotoxicity ([3]; 0.5 μM to 20 μM with STSR 75 nM, FIG. 5): significant dose-dependent neuroprotection
neuroprotection against STSR-induced cytotoxicity ([3]; 0.5 μM, 1.5 μM and 5 μM with STSR 75 nM, 72 hrs, FIG. 3): significant neuroprotection
Cell Death (%) vs STSR at 75 nM, significance ([3]; 5 μM with STSR 75 nM, compared to STSR-alone, One-Way ANOVA, FIG. 3): Statistically significant neuroprotection
protection from STSR induced cytotoxicity ([3]; 5 μM, 10 μM and 15 μM with STSR 75 nM, FIG. 6): protected
Cell Death (%) vs STSR, significance ([3]; 10 μM and 15 μM with STSR 75 nM, FIG. 6): Statistically significant neuroprotection
CB1R expression and translocation [4]: promotes translocation of CB1R to the Golgi apparatus
BAX expression [5]: attenuates BAX expression to the control levels
BCL2 expression [6]: abrogates the downregulation of BCL2
TuJ1 expression, immunocytochemistry [7]: promotes upregulation of TuJ1 expression
neurite length ([8]; 24 hours post treatment, FIG. 14 (B)): increased neurite length significantly
neuritogenesis (neurite length) ([8]; dose dependent, FIG. 12): significantly increased the neuritogenesis
